Experimental data published in patent publication US8585965B2, “Sterilization of polymeric materials” (priority 2006, dated 2013).

Legend:
Assay type in all cases: cell-based
[1] = tested on: Enterococcus faecalis ATCC 29212; experiment: Radiosensitization of bacteria coated onto a material surface (sterile 12 mm paper disks), gamma irradiation, cfu by dilution plating; conditions: for enhancement of the killing efficiency of the irradiation / cfu recovered, 0.3 kGy: 0.3 kGy; for enhancement of the killing efficiency of the irradiation: paper disks; for Post-Treatment CFU Added: 2 hours at room temperature; for cfu recovered, 0.3 kGy / cfu recovered, 0 kGy: paper disk; for cfu recovered, 0 kGy: not irradiated
Protocol: Enterococcus faecalis ATCC 29212, grown overnight in tryptic soy broth at 37° C. without shaking, were centrifuged and resuspended in 2% glucose at a concentration of about 5×10^7 cfu/ml. […] The cfu contained in each sample were quantified by dilution plating and the values are listed as “post-treatment cfu added.” None of the radiosensitizer treatments alone appeared to have a significant adverse effect on the bacteria.
Following radiosensitizer treatment, 0.05 ml of each mixture (containing approximately 1×10^6 cfu) was spotted onto sterile 12 mm paper disks and the disks air dried for 30 minutes. The disks were then placed in sterile tubes and left untreated or irradiated with 0.3 kGy. The cfu were recovered from the disks by vortexing with glass beads for 1 minute in 0.85% saline with 0.35 g/l lecithin and 2.5 ml/l Tween 80. Quantification of the cfu was then performed by dilution plating onto tryptic soy agar.

[2] = tested on: Enterococcus faecalis ATCC 29212; experiment: Radiosensitization of bacteria coated onto Prolene mesh (Example 3)
Protocol: (§1) Enterococcus faecalis ATCC 29212, grown overnight in tryptic soy broth at 37° C. without shaking, were centrifuged and resuspended in phosphate buffered saline (PBS) at a concentration of about 5×10^8 cfu/ml. […] The cfu contained in each sample after this incubation were quantified by dilution plating.
(§2) Following radiosensitizer treatment, 0.01 ml of each mixture (containing approximately 5×10^8 cfu) was spotted onto nine 1 cm×1 cm squares of Prolene® mesh that were then air dried for 60 minutes. Triplicate samples were then placed in sterile tubes and left untreated or irradiated with 0.1 or 0.3 kGy. The cfu were recovered from the mesh by vortexing with glass beads for 1 minute in 0.85% saline with 0.35 g/l lecithin and 2.5 ml/l Tween 80. Quantification of the cfu was then performed by dilution plating onto tryptic soy agar.

[3] = tested on: Enterococcus faecalis ATCC 29212; experiment: Radiosensitization of bacteria coated onto Vicryl mesh (Example 3); conditions: for Avg CFU Recovered / Log Red v 0 kGy / Log Red v Control / Log Red v Inoculum: 50 μg/ml, Vicryl
Protocol: as §1
as §2, with “Vicryl®” for “Prolene®”

[4] = tested on: Enterococcus faecalis ATCC 29212; experiment: Radiosensitization of bacteria coated onto Spongostan gelatin sponge (Example 4); conditions: 50 μg/ml methylene blue
Protocol: as §1
as §2, with “Spongostan® gelatin sponge” for “Prolene® mesh”, “minutes. (Spongostan® is a dry artificial sponge of fibrin prepared by clotting with thrombin, a foam or solution of fibrinogen. It is used in conjunction with thrombin as a hemostatic in surgery at sites where bleeding cannot be controlled by more common methods.)” for “minutes.”, “sponge” for “mesh”

[5] = tested on: Enterococcus faecalis ATCC 29212; experiment: Radiosensitization of bacteria coated onto Vicryl mesh (Example 2), irradiation 0.1 or 0.2 kGy; parameters: Inoculum: dose or concentration left out as unconfirmed
Protocol: as §1, with “roughly 2×10^9” for “about 5×10^8”
as §2, with “approximately 2×10^7” for “approximately 5×10^8”, “of Vicryl®” for “of Prolene®”, “or 0.2” for “or 0.3”, “the meshes” for “the mesh”

[6] = 50 μg/ml methylene blue, 2 hours, no irradiation
[7] = 50 μg/ml, 0.3 kGy, Prolene, triplicate samples

O=[N+]([O-])[O-].[Na+] [Sodium Nitrate, sodium nitrate]
enhancement of the killing efficiency of the irradiation [1]: greatest effect
Percent Survival 0.3 vs. 0 kGy ([1]; Conc. 5000 μg/ml): 0.00%
Post-Treatment CFU Added ([1]; Conc. 5000 μg/ml): 8.15E+05 CFU
cfu recovered, 0.3 kGy ([1]; Conc. 5000 μg/ml): 0 cfu
cfu recovered, 0 kGy ([1]; Conc. 5000 μg/ml): 420 cfu

Cc1cc2nc3c(=O)[nH]c(=O)nc-3n(C[C@H](O)[C@H](O)[C@H](O)CO)c2cc1C [Riboflavin, riboflavin]
Percent Survival 0.3 vs. 0 kGy ([1]; Conc. 200 μg/ml): 0.28%
Post-Treatment CFU Added ([1]; Conc. 200 μg/ml): 8.50E+05 CFU
cfu recovered, 0.3 kGy ([1]; Conc. 200 μg/ml): 3 cfu
cfu recovered, 0 kGy ([1]; Conc. 200 μg/ml): 1080 cfu
Percent Survival 0.3 vs. 0 kGy ([1]; Conc. 1000 μg/ml): 0.83%
Post-Treatment CFU Added ([1]; Conc. 1000 μg/ml): 8.00E+05 CFU
cfu recovered, 0.3 kGy ([1]; Conc. 1000 μg/ml): 9 cfu
cfu recovered, 0 kGy ([1]; Conc. 1000 μg/ml): 1080 cfu

CN(C)c1ccc2nc3ccc(=[N+](C)C)cc-3sc2c1 [Methylene Blue, methylene blue]
Percent Survival 0.3 vs. 0 kGy ([1]; Conc. 20 μg/ml): 0.13%
Post-Treatment CFU Added ([1]; Conc. 20 μg/ml): 7.80E+05 CFU
cfu recovered, 0.3 kGy ([1]; Conc. 20 μg/ml): 3 cfu
cfu recovered, 0 kGy ([1]; Conc. 20 μg/ml): 2250 cfu
cfu contained in sample after incubation ([2]; 50 μg/ml methylene blue, 2 hours at room temperature, PBS, suspension used for Prolene and Vicryl meshes, untreated 4.8×10^8): 4.2×10^8 cfu/ml
effect of incubation on the bacterial number [2, 6]: did not significantly affect the bacterial number
Inoculum ([2]; 50 μg/ml methylene blue, spotted onto Prolene mesh): 4.20E+06 CFU
Avg CFU Recovered ([2]; 50 μg/ml, 0.0 kGy, Prolene): 2.38E+03 CFU
Log Red v 0 kGy ([2]; 50 μg/ml, 0.0 kGy, Prolene): 0.0 Log
Log Red v Control ([2]; 50 μg/ml, 0.0 kGy, Prolene): −1.5 Log
Log Red v Inoculum ([2]; 50 μg/ml, 0.0 kGy, Prolene): −3.2 Log
Avg CFU Recovered ([2]; 50 μg/ml, 0.3 kGy, Prolene): 0.00E+00 CFU
Log Red v 0 kGy ([2]; 50 μg/ml, 0.3 kGy, Prolene): −3.4 Log
Log Red v Control ([2]; 50 μg/ml, 0.3 kGy, Prolene): −1.2 Log
Log Red v Inoculum ([2]; 50 μg/ml, 0.3 kGy, Prolene): −6.6 Log
Plated CFU [2, 7]: 0.00E+00 CFU
Total CFU Recovered [2, 7]: 0.00E+00 CFU
number of bacteria recovered, combination with irradiation compared to methylene blue or irradiation alone ([2]; Prolene mesh): significantly reduced the number of bacteria recovered
Inoculum ([3]; 50 μg/ml methylene blue, spotted onto Vicryl mesh): 4.20E+06 CFU
Avg CFU Recovered ([3]; 0.0 kGy): 1.79E+04 CFU
Log Red v 0 kGy ([3]; 0.0 kGy): 0.0 Log
Log Red v Control ([3]; 0.0 kGy): −1.2 Log
Log Red v Inoculum ([3]; 0.0 kGy): −2.4 Log
Avg CFU Recovered ([3]; 0.3 kGy): 9.83E+01 CFU
Log Red v 0 kGy ([3]; 0.3 kGy): −2.3 Log
Log Red v Control ([3]; 0.3 kGy): −0.8 Log
Log Red v Inoculum ([3]; 0.3 kGy): −4.6 Log
number of bacteria recovered, combination with irradiation compared to methylene blue or irradiation alone ([3]; Vicryl mesh): significantly reduced the number of bacteria recovered
cfu contained in sample after incubation ([4]; 2 hours at room temperature, PBS, untreated 4.8×10^8): 4.2×10^8 cfu/ml
effect of incubation on the bacterial number ([4]; 2 hours, no irradiation): did not significantly affect the bacterial number
Avg CFU Rec ([5]; 0 kGy, Vicryl mesh): 7.40E+05 CFU
Avg Log CFU ([5]; 0 kGy, Vicryl mesh): 5.72 Log CFU
cfu contained in sample after incubation ([5]; 50 μg/ml methylene blue, 2 hours at room temperature, PBS, untreated 1.8×10^9): 1.6×10^9 cfu/ml
effect of incubation on the bacterial number [5, 6]: did not significantly affect the bacterial number
Avg Log CFU ([5]; 0.1 kGy, Vicryl mesh): 3.90 Log CFU
Avg CFU Rec ([5]; 0.2 kGy, Vicryl mesh): 1.83E+03 CFU
Avg Log CFU ([5]; 0.2 kGy, Vicryl mesh): 3.08 Log CFU
effect on bacterial recovery ([5]; methylene blue, Vicryl mesh): small effect on bacterial recovery
recovery from unirradiated sample ([5]; methylene blue-treated, 0 kGy, Vicryl mesh, control 15%): 4.6%
Inoculum ([5]; spotted onto Vicryl mesh): 1.60E+07 CFU

O=C1O[C@H]([C@@H](O)CO)C(O)=C1O [Ascorbic Acid, ascorbic acid]
enhancement of the killing efficiency of the irradiation [1]: greatest effect
Percent Survival 0.3 vs. 0 kGy ([1]; Conc. 200 μg/ml): 0.28%
Post-Treatment CFU Added ([1]; Conc. 200 μg/ml): 8.55E+05 CFU
cfu recovered, 0.3 kGy ([1]; Conc. 200 μg/ml): 9 cfu
cfu recovered, 0 kGy ([1]; Conc. 200 μg/ml): 3270 cfu

Cc1cc2nc3ccc(N(C)C)cc3[s+]c2cc1N.[Cl-] [Toluidine Blue, toluidine blue]
enhancement of the killing efficiency of the irradiation [1]: greatest effect
Percent Survival 0.3 vs. 0 kGy ([1]; Conc. 20 μg/ml): 0.00%
Post-Treatment CFU Added ([1]; Conc. 20 μg/ml): 7.70E+05 CFU
cfu recovered, 0.3 kGy ([1]; Conc. 20 μg/ml): 0 cfu
cfu recovered, 0 kGy ([1]; Conc. 20 μg/ml): 87 cfu
Percent Survival 0.3 vs. 0 kGy ([1]; Conc. 100 μg/ml): 0.00%
Post-Treatment CFU Added ([1]; Conc. 100 μg/ml): 4.65E+05 CFU
cfu recovered, 0.3 kGy ([1]; Conc. 100 μg/ml): 0 cfu
cfu recovered, 0 kGy ([1]; Conc. 100 μg/ml): 72 cfu
